Data as given in ChEMBL document CHEMBL2406938, “Inhibitors of the renal outer medullary potassium channel” (ACS Med Chem Lett, 2013).

Experiments:
[1] = target: T1, ATP-sensitive inward rectifier potassium channel 1 (Homo sapiens) (UniProt P48048); experiment: Inhibition of human Kir1.1 expressed in HEK293 cells by thallium flux assay; format: cell-based
T1 sequence (whole entry): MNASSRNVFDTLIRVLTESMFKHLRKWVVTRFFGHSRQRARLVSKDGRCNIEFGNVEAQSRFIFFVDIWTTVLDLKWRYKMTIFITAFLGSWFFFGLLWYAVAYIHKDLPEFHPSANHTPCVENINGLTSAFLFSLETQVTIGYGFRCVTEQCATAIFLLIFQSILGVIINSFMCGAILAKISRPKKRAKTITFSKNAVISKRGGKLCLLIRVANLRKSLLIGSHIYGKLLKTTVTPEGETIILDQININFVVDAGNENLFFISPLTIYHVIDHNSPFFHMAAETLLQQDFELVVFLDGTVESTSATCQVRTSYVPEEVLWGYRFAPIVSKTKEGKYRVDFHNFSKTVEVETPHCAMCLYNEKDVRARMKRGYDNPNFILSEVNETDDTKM

[2] = target: T1, ATP-sensitive inward rectifier potassium channel 1 (Homo sapiens); experiment: Inhibition of human Kir1.1 expressed in CHO cells by whole cell voltage clamp assay; format: cell-based

Row | Compound | INH [1] [µM] | INH [2] [µM]
1 | O=C1OCc2cc([C@@H]3CN4CCN(C(=O)C5CCc6nc(-n7cnnn7)ccc65)C[C@H]4CO3)ccc21 (stereo not given in full) | 0.11 | 0.09
2 | Cc1c([C@H]2CN3CCN(C(=O)C4CCc5nc(-n6cnnn6)ccc54)C[C@H]3CN2)ccc(F)c1C#N (stereo not given in full) | 0.16 | 0.09
3 | Cc1c([C@@H]2CN3CCN(C(=O)C4CCc5nc(-n6cnnn6)ccc54)C[C@H]3CO2)csc1C#N (stereo not given in full) | 0.54 | 0.06
4 | Cc1c([C@@H]2CN3CCN(C(=O)C4CCc5nc(-n6cnnn6)ccc54)C[C@H]3CO2)ccc(F)c1C#N (stereo not given in full) | 0.14 | 0.08
5 | O=C1OCc2cc([C@H]3CN4CCN(C(=O)C5CCc6cc(-n7cnnn7)ncc65)C[C@H]4CO3)ccc21 (stereo not given in full) | – | 0.06
6 | N#Cc1c(F)ccc([C@@H]2CN3CCN(C(=O)C4CCc5nc(-n6cnnn6)ncc54)C[C@@H]3CO2)c1Cl (stereo not given in full) | 0.17 | 0.06
7 | Cc1c([C@H]2CN3CCN(C(=O)C4CCc5cc(-n6cnnn6)ncc54)C[C@H]3CN2)ccc(F)c1C#N (stereo not given in full) | 0.18 | 0.1
8 | N#Cc1c(F)ccc([C@@H]2CN3CCN(C(=O)C4CCc5cc(-n6cnnn6)ncc54)C[C@H]3CO2)c1F (stereo not given in full) | 0.16 | 0.04
